Measurements taken from US6172091A, “1,2-Disubstituted cyclopropanes” (Ortho-McNeil Pharmaceutical, Inc., priority 1999, dated 2001).

Tests used:
[1] = target: T1, calcium sensing receptor as found in the human parathyroid gland (Homo sapiens, UniProt P41180); assay: calcium mobilization fluorescence (FLIPR) assay, agonist mode; type: cell-based; settings: transfected HEK 293 cells; 1 mM calcium standard; Tables 2-7; read-out: In Vitro: CS50, where potency is at 50% of the calcium standard potency
T1 construct: expressed in transfected cells; host or cells: HEK 293
T1 sequence (P41180 20-1078): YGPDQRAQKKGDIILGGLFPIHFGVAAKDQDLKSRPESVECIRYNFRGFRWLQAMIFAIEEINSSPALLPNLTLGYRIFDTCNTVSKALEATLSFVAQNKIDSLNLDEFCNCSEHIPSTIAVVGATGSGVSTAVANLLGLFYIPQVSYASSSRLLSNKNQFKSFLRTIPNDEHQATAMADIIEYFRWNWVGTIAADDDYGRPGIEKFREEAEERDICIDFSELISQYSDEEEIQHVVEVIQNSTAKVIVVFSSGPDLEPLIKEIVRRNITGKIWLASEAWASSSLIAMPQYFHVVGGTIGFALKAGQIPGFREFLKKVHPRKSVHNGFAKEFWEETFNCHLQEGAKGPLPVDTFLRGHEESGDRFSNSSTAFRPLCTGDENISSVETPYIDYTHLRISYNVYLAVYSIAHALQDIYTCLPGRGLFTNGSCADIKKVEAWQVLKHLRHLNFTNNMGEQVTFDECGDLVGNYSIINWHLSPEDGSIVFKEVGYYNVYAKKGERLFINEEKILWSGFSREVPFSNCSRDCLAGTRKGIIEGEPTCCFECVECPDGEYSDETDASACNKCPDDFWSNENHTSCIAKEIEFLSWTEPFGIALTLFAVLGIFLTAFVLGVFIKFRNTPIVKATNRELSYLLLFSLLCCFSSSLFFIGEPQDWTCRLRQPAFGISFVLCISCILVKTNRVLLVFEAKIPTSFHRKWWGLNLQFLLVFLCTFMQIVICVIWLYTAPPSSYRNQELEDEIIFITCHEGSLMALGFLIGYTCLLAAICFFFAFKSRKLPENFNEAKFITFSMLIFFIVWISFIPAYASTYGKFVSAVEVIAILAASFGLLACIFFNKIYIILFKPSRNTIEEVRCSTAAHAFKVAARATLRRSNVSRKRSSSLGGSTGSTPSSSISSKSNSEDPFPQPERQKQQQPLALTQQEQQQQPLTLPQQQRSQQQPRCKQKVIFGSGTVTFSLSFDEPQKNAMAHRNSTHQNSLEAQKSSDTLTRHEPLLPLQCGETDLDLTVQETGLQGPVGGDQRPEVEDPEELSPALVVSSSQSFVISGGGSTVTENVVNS
Experimental: (§1) In vitro potency is measured via calcium mobilization in a fluorescence assay using HEK 293 cells transfected to express the same calcium sensing receptor as found in the human parathyroid gland. In this assay calcium-sensing receptor agonists and antagonists are detected. The assay is conducted in a 96-well plate format with the use of FLIPR (fluorescent imaging plate reader; Molecular Devices, Sunnyvale, Calif.). The HEK 293 cell media is replaced with the fluorescence dye FLUO-3AM and Pluronic detergent in FLIPR assay buffer. Cells are incubated 60 min (in the dark, at room temperature), then washed with assay buffer and placed in FLIPR. Images are collected by FLIPR in the absence of test compound, then in the presence of test compound (at 25 µM) and then after addition of a calcium challenge (at 1 mM). In the agonist assay the difference between maximum and minimum fluorescence values is measured following test compound addition. Hits have a change in fluorescence greater than or equal to 50% of that seen with a 1 mM calcium standard. In the antagonist assay the difference between maximum and minimum fluorescence values is measured following the calcium challenge addition. When compared to challenge in the absence of test compound, hits reduce fluorescence by at least 50%. In vivo activity is measured via parathyroid hormone (PTH) supression by test compounds in a rat model. Compound is administered orally using 0.5% Tween 80 in distilled water as vehicle, with a volume of approximately 10 mL/kg body weight. Blood samples are taken at 15 minutes (and 4 h if required) post oral dosing. Serum PTH levels are determined with an immunoradiometric assay.
(§2) Not all compounds were tested in each of the screens. […] Each entry represents a mixture of cis and trans cyclopropanes (R,S; S,R; R,R; S,S) with R absolute configuration when R^3=CH3. Table 2 lists compounds that are trans at the cyclopropane (R,R; S,S) with R absolute configuration at the benzylamine position, or without stereochemistry at the benzylamine. Table 3 lists compounds with R,R absolute stereochemistry at the cyclopropane and a mixture of stereochemistry at the benzylamine position. 20. In vitro data in Table 1 is percent activation of the calcium-sensing receptor versus baseline. In vitro data in Tables 2-7 is expressed as a CS50, where potency is at 50% of the calcium standard potency, and the unit is μM. In vivo data represents % blood serum PTH vs. vehicle at 30 mg/kg test compound, levels measured after 15 minutes.

[2] = system: parathyroid hormone (PTH); assay: parathyroid hormone (PTH) suppression in a rat model; type: in vivo; settings: Rattus norvegicus, po, 0.25 h, 30 mg/kg test compound, levels measured after 15 minutes, read-out: In Vivo: % blood serum PTH vs. vehicle
Experimental: as §1, §2

EC50 [1] [µM]	Compound	change in vivo at 30 mg/kg [2] [%]
> 25	CC(NC[C@@H]1C[C@H]1c1ccccc1)c1cccc(F)c1 (stereo partly drawn) [Compound 45]	-19.6
> 25	CC(NC[C@@H]1C[C@H]1c1ccccc1)c1cccc(Cl)c1 (stereo partly drawn) [Compound 46, N-((R,R)-2-phenylcyclopropanylmethyl)-1-(3-chlorophenyl)ethylamine]	-15.9
> 25	CC(NC[C@@H]1C[C@H]1c1ccccc1)c1ccc2c(c1)OCO2 (stereo partly drawn) [Compound 47]	-67.3
8.7	C[C@@H](NC[C@@H]1C[C@H]1c1ccccc1)c1cccc(O)c1 [Compound 48]	-41.7
5	COc1cccc([C@@H](C)NC[C@@H]2C[C@H]2c2ccccc2)c1 [Compound 49, N-((R,R)-2-phenylcyclopropanylmethyl)-1-(R)-(3-methoxyphenyl)ethylamine]	-83.6
11.9	CCOc1cccc([C@@H](C)NC[C@@H]2C[C@H]2c2ccccc2)c1 [Compound 50, N-((R,R)-2-phenylcyclopropanylmethyl)-1-(R)-(3-ethoxyphenyl)ethylamine]	-57
> 25	CC(C)Oc1cccc([C@@H](C)NC[C@@H]2C[C@H]2c2ccccc2)c1 [Compound 51]	-7.3
12.2	C[C@@H](NC[C@@H]1C[C@H]1c1ccccc1)c1cccc(OC2CCCC2)c1 [Compound 52]	26.6
> 25	COc1cccc([C@@H](C)N(C[C@@H]2C[C@H]2c2ccccc2)C(C)=O)c1 [Compound 53]	-6.4
> 25	CCC(=O)N(C[C@@H]1C[C@H]1c1ccccc1)[C@H](C)c1cccc(OC)c1 [Compound 54]	-33.7
> 25	COC(=O)N(C[C@@H]1C[C@H]1c1ccccc1)[C@H](C)c1cccc(OC)c1 [Compound 56]	-40.9
> 25	COc1cccc([C@@H](C)N(C[C@@H]2C[C@H]2c2ccccc2)C(=O)OCC(C)C)c1 [Compound 57]	-5.3
> 25	COc1cccc([C@@H](C)N(C[C@@H]2C[C@H]2c2ccccc2)C(=O)CNC(=O)OC(C)(C)C)c1 [Compound 58]	-12.7
12.9	COc1cccc([C@@H](C)NC[C@H]2C[C@@H]2c2ccccc2)c1 [Compound 60]	-42.1
11.2	COc1cccc([C@@H](C)NC[C@@H]2C[C@@H]2c2ccccc2)c1 [Compound 61]	0
17.6	COc1cccc([C@@H](C)NC[C@H]2C[C@H]2c2ccccc2)c1 [Compound 62]	0
> 25	COc1cccc([C@H](C)NC[C@@H]2C[C@H]2c2ccccc2)c1 [Compound 63]	-40.1
> 25	COc1cccc([C@H](C)NC[C@H]2C[C@@H]2c2ccccc2)c1 [Compound 64]	-11.7
> 25	COc1cccc([C@H](C)NC[C@H]2C[C@H]2c2ccccc2)c1 [Compound 65]	-38.8
> 25	COc1cccc([C@H](C)NC[C@@H]2C[C@@H]2c2ccccc2)c1 [Compound 66]	-61.8
10.1	COc1cccc([C@@H](C)NCC2C(C)C2c2ccccc2)c1 (stereo partly drawn) [Compound 67]	-92.9
> 25	COc1cccc([C@@H](C)NCC2CC2(C)c2ccccc2)c1 (stereo partly drawn) [Compound 68]	-94.5
> 25	COc1cccc([C@@H](C)NC[C@H]2C[C@H]2c2cc(C)ccc2C)c1 [Compound 69]	-53.9
21	COc1cccc([C@@H](C)NC[C@@H]2C[C@@H]2c2cc(C)ccc2C)c1 [Compound 70]	-24.7
